Experimental data as given in US7589213B2 (priority 2007, dated 2009).

Assays:
EP2 [1] = molecular target: T1, EP2 (Homo sapiens, UniProt P43116); experiment: EP2 flipr assay; assay type: cell-based
From the text: (§1) U.S. patent application Ser. No. 11/553,143, filed on Oct. 26, 2006, incorporated by reference herein, describes the methods used to obtain the in vitro data in the table below.

EP2 [2] = molecular target: T1, EP2; experiment: EP2 cAMP assay; assay type: cell-based
From the text: as §1

EP2 [3] = molecular target: T1, EP2; experiment: EP2 binding (Ki)
From the text: as §1

hEP1 = molecular target: T2, hEP1 (Homo sapiens, UniProt P34995); experiment: Other receptors functional EC50, hEP1; assay type: cell-based
T2 sequence (P34995 1-402): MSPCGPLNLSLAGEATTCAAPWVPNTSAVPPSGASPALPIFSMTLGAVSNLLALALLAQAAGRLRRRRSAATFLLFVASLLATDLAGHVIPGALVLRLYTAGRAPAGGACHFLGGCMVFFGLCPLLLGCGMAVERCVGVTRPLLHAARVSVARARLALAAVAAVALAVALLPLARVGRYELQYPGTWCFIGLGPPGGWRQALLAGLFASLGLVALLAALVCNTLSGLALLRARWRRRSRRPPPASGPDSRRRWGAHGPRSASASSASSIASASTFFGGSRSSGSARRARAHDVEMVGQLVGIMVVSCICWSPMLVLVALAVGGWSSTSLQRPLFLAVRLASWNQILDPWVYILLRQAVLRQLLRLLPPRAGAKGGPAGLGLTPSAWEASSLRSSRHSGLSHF
From the text: as §1

hEP3A = molecular target: T3, hEP3A (Homo sapiens, UniProt P43115); experiment: Other receptors functional EC50, hEP3A; assay type: cell-based
T3 sequence (P43115 1-390): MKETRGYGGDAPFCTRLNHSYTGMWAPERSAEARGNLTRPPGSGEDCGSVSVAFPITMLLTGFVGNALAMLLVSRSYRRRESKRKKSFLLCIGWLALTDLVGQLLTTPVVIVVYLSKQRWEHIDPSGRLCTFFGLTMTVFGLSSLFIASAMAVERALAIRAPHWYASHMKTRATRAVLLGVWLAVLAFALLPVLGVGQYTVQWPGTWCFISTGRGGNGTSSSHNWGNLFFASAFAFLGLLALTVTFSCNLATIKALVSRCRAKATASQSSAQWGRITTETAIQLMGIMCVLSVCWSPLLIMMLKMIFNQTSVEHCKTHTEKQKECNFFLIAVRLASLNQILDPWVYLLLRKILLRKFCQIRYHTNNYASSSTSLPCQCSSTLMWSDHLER
From the text: as §1

hDP = molecular target: T4, hDP (Homo sapiens, UniProt Q13258); experiment: Other receptors functional EC50, hDP; assay type: cell-based
T4 sequence (Q13258 1-359): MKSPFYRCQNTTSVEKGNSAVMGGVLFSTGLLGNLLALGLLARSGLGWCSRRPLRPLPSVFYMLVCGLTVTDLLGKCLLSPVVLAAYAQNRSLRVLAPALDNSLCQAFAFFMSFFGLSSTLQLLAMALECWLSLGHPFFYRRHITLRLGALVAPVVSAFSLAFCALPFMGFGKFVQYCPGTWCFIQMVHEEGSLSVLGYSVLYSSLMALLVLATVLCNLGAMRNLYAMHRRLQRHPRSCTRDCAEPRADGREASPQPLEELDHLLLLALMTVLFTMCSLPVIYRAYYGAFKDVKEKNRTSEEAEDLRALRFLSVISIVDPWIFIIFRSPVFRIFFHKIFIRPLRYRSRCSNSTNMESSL
From the text: as §1

EP4 [4] = molecular target: T5, EP4 (Homo sapiens, UniProt P35408); experiment: EP4 binding (KI)
From the text: as §1

EP4 [5] = molecular target: T5, EP4; experiment: EP4 flipr assay; assay type: cell-based
From the text: as §1

normotensive dogs = experiment: Intraocular pressure and ocular surface hyperemia in normotensive dogs; assay type: in vivo, dog; conditions: once daily for 5 days
Procedure: U.S. Pat. No. 7,091,231 describes the methods used to carry out the tests reported below.
[…] The maximum intraocular pressure (IOP) decrease from baseline was 6.3 mmHg (39%) at 4 h; the maximum ocular surface hyperemia (OSH) score was 1.6 at 28 hours. This compound was also tested in laser-induced hypertensive monkeys, using one single day dose. At 0.01%, the maximum IOP decrease from baseline was 23 mmHg (61%) at 24 hours.

hTP = molecular target: T6, hTP (Homo sapiens, UniProt P21731); experiment: Other receptors functional EC50, hTP; assay type: cell-based
T6 sequence (P21731 1-343): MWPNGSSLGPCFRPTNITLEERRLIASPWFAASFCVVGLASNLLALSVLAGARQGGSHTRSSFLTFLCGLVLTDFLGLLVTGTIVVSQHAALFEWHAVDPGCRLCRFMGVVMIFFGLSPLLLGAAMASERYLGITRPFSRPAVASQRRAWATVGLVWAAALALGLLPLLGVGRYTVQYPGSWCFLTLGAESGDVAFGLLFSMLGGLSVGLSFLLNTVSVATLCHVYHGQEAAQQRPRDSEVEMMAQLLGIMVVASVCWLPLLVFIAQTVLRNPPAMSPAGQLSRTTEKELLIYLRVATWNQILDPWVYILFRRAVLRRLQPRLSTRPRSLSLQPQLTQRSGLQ
From the text: as §1

hIP = hIP (Homo sapiens, UniProt P43119); experiment: Other receptors functional EC50, hIP; assay type: cell-based
From the text: as §1

T5 sequence (P35408 whole entry): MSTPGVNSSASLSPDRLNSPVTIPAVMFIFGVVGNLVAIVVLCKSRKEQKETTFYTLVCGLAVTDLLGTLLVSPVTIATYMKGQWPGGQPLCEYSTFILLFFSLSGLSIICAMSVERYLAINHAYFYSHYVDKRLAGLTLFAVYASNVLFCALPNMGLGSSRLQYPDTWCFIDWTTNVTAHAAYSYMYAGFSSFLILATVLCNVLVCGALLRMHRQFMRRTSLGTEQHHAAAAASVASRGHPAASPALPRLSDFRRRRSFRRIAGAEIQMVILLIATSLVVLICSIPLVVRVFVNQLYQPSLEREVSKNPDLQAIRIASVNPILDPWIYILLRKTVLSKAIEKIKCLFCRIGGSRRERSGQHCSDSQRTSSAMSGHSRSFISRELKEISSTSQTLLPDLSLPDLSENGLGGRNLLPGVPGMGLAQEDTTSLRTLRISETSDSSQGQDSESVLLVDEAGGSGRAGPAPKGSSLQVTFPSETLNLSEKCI
T1 sequence (P43116 whole entry): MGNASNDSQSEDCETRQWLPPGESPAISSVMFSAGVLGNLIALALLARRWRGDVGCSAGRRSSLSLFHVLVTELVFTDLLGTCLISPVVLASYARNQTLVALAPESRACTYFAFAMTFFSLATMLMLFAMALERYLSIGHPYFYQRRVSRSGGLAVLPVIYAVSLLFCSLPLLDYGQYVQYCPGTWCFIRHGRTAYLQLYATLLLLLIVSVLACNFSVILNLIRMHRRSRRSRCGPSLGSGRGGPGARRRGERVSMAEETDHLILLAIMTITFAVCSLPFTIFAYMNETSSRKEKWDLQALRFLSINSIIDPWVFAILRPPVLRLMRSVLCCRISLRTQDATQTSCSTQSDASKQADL
hIP, sequence (P43119 whole entry): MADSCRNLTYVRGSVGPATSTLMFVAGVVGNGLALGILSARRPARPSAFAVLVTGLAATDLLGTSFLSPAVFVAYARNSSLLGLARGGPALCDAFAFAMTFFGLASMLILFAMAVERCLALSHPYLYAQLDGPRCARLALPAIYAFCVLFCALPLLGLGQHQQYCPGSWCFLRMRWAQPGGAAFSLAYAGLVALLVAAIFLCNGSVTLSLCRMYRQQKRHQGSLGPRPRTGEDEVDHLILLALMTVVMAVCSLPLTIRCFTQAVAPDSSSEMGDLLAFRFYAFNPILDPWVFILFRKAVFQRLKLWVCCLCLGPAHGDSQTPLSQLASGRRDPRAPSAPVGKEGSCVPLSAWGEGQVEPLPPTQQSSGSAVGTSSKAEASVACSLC

Compound | EC50 (EP2 [1]) [nM] | EC50 (EP2 [2]) [nM] | Ki (EP2 [3]) [nM] | EC50 (hEP1) [nM] | EC50 (hEP3A) [nM] | EC50 (hDP) [nM] | Ki (EP4 [4]) [nM] | EC50 (EP4 [5]) [nM] | maximum ocular surface hyperemia (OSH) score (normotensive dogs; 0.001%, maximum at 50 hours) | maximum ocular surface hyperemia (OSH) score (normotensive dogs; 0.01%, maximum at 26 hours) | maximum ocular surface hyperemia (OSH) score (normotensive dogs; 0.01%, maximum at 28 hours) | EC50 (hTP) [nM] | EC50 (hIP) [nM]
CCCCCC(O)c1ccc(N2C(=O)CC[C@@H]2CCSc2nc(C(=O)O)cs2)cc1 (single isomer, unassigned) [compound 17] | 18 | 0.15 | 15 | > 10000 | 35 | > 10000 |  |  |  |  |  |  | 
CCCCCC(O)c1ccc(N2C(=O)CC[C@@H]2CCSc2nc(C(=O)O)cs2)cc1 (single isomer, unassigned) [compound 18] | 7 | 0.09 | 15 |  | 46 | 7170 |  |  |  |  |  |  | 
CCCCCCC(O)c1ccc(N2C(=O)CC[C@@H]2CCSc2nc(C(=O)O)cs2)cc1 (single isomer, unassigned) [compound 36] | 57 | 1.2 | 13 |  | 11 | 11900 | > 10000 |  |  |  |  |  | 
CCCCCCC(O)c1ccc(N2C(=O)CC[C@@H]2CCSc2nc(C(=O)O)cs2)cc1 (single isomer, unassigned) [compound 37] | 11 | 0.4 | 9 |  | 51 | 5320 | 9150 | 14600 |  |  |  |  | 
CCCCCC(O)c1ccc(N2C(=O)CC[C@@H]2CCSc2nc(C(=O)OC(C)C)cs2)cc1 (single isomer, unassigned) [compound 67] |  |  |  |  |  |  |  |  | 1.9 | 2.0 |  |  | 
CCCCCC(O)c1ccc(N2C(=O)CC[C@@H]2CCSc2nc(C(=O)OC(C)C)cs2)cc1 (single isomer, unassigned) [compound 68] |  |  |  |  |  |  |  |  |  |  | 2.0 |  | 
CCCCCC(O)c1ccc(N2C(=O)CC[C@@H]2CCSc2nc(C(=O)O)cs2)cc1 (stereo partly drawn) [compound 14, (R)-2-(2-(1-(4-(1-hydroxyhexyl)phenyl)-5-oxopyrrolidin-2-yl)ethylthio)thiazole-4-carboxylic acid] | 36 | 0.19 | 11 | > 10000 | 44 | > 10000 | > 10000 |  |  |  |  | > 10000 | > 10000
CCCCCC(F)c1ccc(N2C(=O)CC[C@@H]2CCSc2nc(C(=O)O)cs2)cc1 (stereo partly drawn) [compound 19, (R)-2-(2-(1-(4-(1-fluorohexyl)phenyl)-5-oxopyrrolidin-2-yl)ethylthio)thiazole-4-carboxylic acid] | 8 | 0.23 | 9 | > 10000 | 90 | > 10000 | > 10000 |  |  |  |  |  | 
CCCCCC(O)c1ccc(N2C(=O)CC[C@@H]2CCSc2ncc(C(=O)O)s2)cc1 (stereo partly drawn) [compound 22, (R)-2-(2-(1-(4-(1-hydroxyhexyl)phenyl)-5-oxopyrrolidin-2-yl)ethylthio)thiazole-5-carboxylic acid] | 1800 | 4 | 389 |  | 11400 | > 10000 | > 10000 |  |  |  |  |  | > 10000
CCCCCCC(O)c1ccc(N2C(=O)CC[C@@H]2CCSc2nc(C(=O)O)cs2)cc1 (stereo partly drawn) [compound 33, (R)-2-(2-(1-(4-(1-hydroxyheptyl)phenyl)-5-oxopyrrolidin-2-yl)ethylthio)thiazole-4-carboxylic acid] | 3 | 0.4 | 12 | > 10000 | 25 | 1560 | 6360 | > 10000 |  |  |  |  | 
CCCCCCC(=O)c1ccc(N2C(=O)CC[C@@H]2CCSc2nc(C(=O)O)cs2)cc1 [compound 38, (R)-2-(2-(1-(4-heptanoylphenyl)-5-oxopyrrolidin-2-yl)ethylthio)thiazole-4-carboxylic acid] | 45 | 0.7 | 18 |  | 43 | 594 | 3030 | > 10000 |  |  |  |  | 
CCCCCC(O)c1ccc(N2C(=O)CC[C@@H]2COCc2cc(C(=O)O)cs2)cc1 (stereo partly drawn) [compound 42, (R)-5-(((1-(4-(1-hydroxyhexyl)phenyl)-5-oxopyrrolidin-2-yl)methoxy)methyl)thiophene-3-carboxylic acid] | 2240 | 5.5 | 448 |  | 1520 |  | > 10000 |  |  |  |  |  | 
CCCCCC(F)c1ccc(N2C(=O)CC[C@@H]2COCc2cc(C(=O)O)cs2)cc1 (stereo partly drawn) [compound 43, (R)-5-(((1-(4-(1-fluorohexyl)phenyl)-5-oxopyrrolidin-2-yl)methoxy)methyl)thiophene-3-carboxylic acid] | 3850 | 7 | 256 |  | 1960 |  | > 10000 |  |  |  |  |  | 
CCCCCC(O)c1ccc(N2C(=O)CC[C@@H]2COCc2csc(C(=O)O)c2)cc1 (stereo partly drawn) [compound 47, (R)-4-(((1-(4-(1-hydroxyhexyl)phenyl)-5-oxopyrrolidin-2-yl)methoxy)methyl)thiophene-2-carboxylic acid] | 2530 | 18 | 784 |  | 1340 |  | > 10000 |  |  |  |  |  | 
CCCCCC(F)c1ccc(N2C(=O)CC[C@@H]2COCc2csc(C(=O)O)c2)cc1 (stereo partly drawn) [compound 48, (R)-4-(((1-(4-(1-fluorohexyl)phenyl)-5-oxopyrrolidin-2-yl)methoxy)methyl)thiophene-2-carboxylic acid] | 5010 | 40 | 1930 |  | 3410 |  | > 10000 |  |  |  |  |  | 
CCCCCC(F)c1ccc(N2C(=O)CC[C@@H]2CSc2nc(C(=O)O)cs2)cc1 (stereo partly drawn) [compound 54] | 212 | 117 | 345 |  | 503 | 16400 | > 10000 |  |  |  |  | 14500 | 
CCCCCC(O)c1ccc(N2C(=O)CC[C@@H]2CSc2nc(C(=O)O)cs2)cc1 (stereo partly drawn) [compound 55] | 284 | 120 | 355 |  | 360 | 16000 | > 10000 |  |  |  |  | 3890 | 
CCCCCC(O)c1ccc(N2C(=O)CC[C@@H]2CCCc2nc(C(=O)O)cs2)cc1 (stereo partly drawn) [compound 63, (S)-2-(3-(1-(4-(1-hydroxyhexyl)phenyl)-5-oxopyrrolidin-2-yl)propyl)thiazole-4-carboxylic acid] | 37 | 0.8 | 115 |  | 42 | > 10000 |  |  |  |  |  |  | 
CCCCCC(O)c1ccc(N2C(=O)CC[C@@H]2CCSc2nc(C(=O)OC(C)C)cs2)cc1 (stereo partly drawn) [compound 66, Isopropyl 2-(2-((2R)-1-(4-(1-hydroxyhexyl)phenyl)-5-oxopyrrolidin-2-yl)ethylthio)thiazole-4-carboxylate] |  |  |  |  |  |  |  |  |  |  | 1.6 |  | 
